From US20070254871A1, “Compounds for the Treatment of Inflammation of the Central Nervous System” (Neurotec Pharma, S.L., priority 2004, published 2007) come the findings set out here.

In this assay the test system is microglial reaction in rat hippocampal lesion. The assay can be described thus: Microglial reaction in rat hippocampal lesion (stereotaxic AMPA injection, IB4 histochemistry). The conditions noted are these: for Density of reactive microcytes / Hippocampal microgliosis area: n=4, mean±S.E.M. It is filed as in vivo. How it is done:
This model relies on the acute stereotaxic over-activation of rat glutamate hippocampal receptors that results in a neurodegenerative process characterized by a neuronal loss with astroglial and microglial reactions (cf. F. Bernal et al., Hippocampus 2000, vol. 10, pp. 296-304; F. Bernal et al., Exp. Neurol. 2000, vol. 161, pp. 686-95). In this neurodegenerative model rats were anaesthetized with equithesin (a mixture of chloral hydrate and pentobarbital sodium; 0.3 ml/100 g body weight, i.p.) and placed on a Kopf stereotaxic frame with the incisor bar set at −3.3 mm. Intracerebral injections aimed at the dorsal hippocampus were performed at 3.3 mm caudal to bregma, 2.2 mm lateral and 2.9 mm ventral from dura (cf. G. Paxinos et al., “The rat brain in stereotaxic coordinates”, Sydney: Academic Press 1986). A volume of 0.5 μl was injected over a period of 5 min.
Four different groups of rats received two injections in a 2-hour interval as follows: a) sham rats (n=4) received two injections of PBS; b) AMPA rats (α-amino-3-hydroxy-5-methylisoxazole-4-propionic acid) (n=4) received the first injection of 5.4 mM AMPA and the second of PBS; c) diazoxide rats (n=4) received two injections of 50 μM diazoxide; d) AMPA+diazo rats (n=4) received 5.4 mM AMPA+50 μM diazoxide in the first injection and 50 μM diazoxide in the second injection. All rats were sacrificed 24 hours after the lesion.
Rats were transcardially perfused with 300 ml of 0.1 M phosphate buffer (PB, pH 7.4) followed by 300 ml ice-cold fixative (flow rate 20 ml/min). The fixative consisted of 4% (w/v) paraformaldehyde in PB. Brains were removed, crioprotected with 15% (w/v) sucrose in PB and then, frozen with dry ice. Cryostat sections (12 μm) were obtained at the level of dorsal hippocampus (−3.3 mm to bregma). Isolectine B4 (IB4) histochemistry was performed to identify the microglial reaction (cf. C. A. Colton et al., J. Histochem. Cytochem. 1992, vol. 40, pp. 505-12).
Microgliosis area evaluation was performed on IB4 positive stained sections, which were analyzed using a computer-assisted image analysis system (OPTIMAS®, BioScan Inc., Washington, USA). IB4-stained reactive microcytes were counted at ×100 magnification using an ocular grid mounted on a transmission light microscope (Axiolab, Zeiss, Göttingen, Germany). One-way ANOVA was used to compare differences between groups, followed by the LSD post-hoc test. Results were expressed as mean±S.E.M. All analyses were performed with the computer program STATGRAPHICS (STSC Inc., Rockville, Md., USA).

The mark [1] stands for this setting: substance alone injected into dorsal hippocampus (diazoxide: two injections of 50 μM; AMPA: 5.4 mM then PBS), 24 hours.
Where [2] appears, read: substance alone injected into dorsal hippocampus (diazoxide: two injections of 50 μM; AMPA: 5.4 mM then PBS), sacrificed 24 hours after the lesion.
Setting [3] is: AMPA+diazo group: 5.4 mM AMPA+50 μM diazoxide in first injection, 50 μM diazoxide in second, 24 hours.

On to `Cc1onc(O)c1CC(N)C(=O)O` (stereo not drawn) [AMPA, α-amino-3-hydroxy-5-methylisoxazole-4-propionic acid], for which, under setting [1], the “Density of reactive microcytes” value is given as 645±59 cells/mm^2. The same compound came in with a Hippocampal microgliosis area under setting [2] of 0.44±0.07 mm^2.
For `CC1=NS(=O)(=O)c2cc(Cl)ccc2N1` [diazoxide], for the setting “AMPA+diazo group versus AMPA group, 24 hours”, the “Microgliosis area as % of the AMPA group” value is listed as 37%. For the same compound, the “Density of reactive microcytes” value reads like this: under setting [3], 603±56 cells/mm^2; under setting [1], 555±91 cells/mm^2. Besides, the Hippocampal microgliosis area is listed as 0.16±0.02 mm^2 under setting [3] and 0.19±0.03 mm^2 under setting [2]. Further, the “Effect on microglial activation (in words)” value (diazoxide-treated animals compared with AMPA-treated animals) is reported as “reduces microglial activation to sham values”.
